The values that follow are results of earlier work, collected in US20090202626A1, “TREATMENT OF BLADDER DISEASES WITH A TLR7 ACTIVATOR” (priority 2008, published 2009).

Series [1] relates to superficial skin cancer. Conditions: in vivo.
Series [2] relates to FCB bladder tumor.
The test system of series [3] is orthotopic bladder cancer.

`CC(C)Cn1cnc2c(N)nc3ccccc3c21` [Imiquimod, imiquimod]: the “efficacy in superficial skin cancer” value in series [1] was “demonstrated efficacy”. Also, in series [2] (mice), the “effect on FCB bladder tumor” value is given as “cured mice”. The “effect on chemically induced bladder cancer” value in series [2] (mouse, in vivo) was “inhibited”. For the same compound, in series [3] (100 μg once weekly, placebo 11 of 13 mice (85%)), the “mice that developed tumors” value is reported as 3 of 14. The anti-tumor activity result in series [3] (orthotopic bladder cancer mouse model) is given as “potent anti-tumor activity”.
